Data reported in paper PMC11695783 (Frontiers in Pharmacology, 2024).
Several values for one entry are separate records, joined by “and”; a condition that tells them apart may be missing. Identical values can stand only once.

Columns and labels:
[1] = tested on: A549; parameters: method as in PMID 26150841; conditions: A549, 8 μg/mL, compared with the control drugs; ref [30]; cited from earlier work
[2] = tested on: ICR strain mice; test: Acute toxicity study, intramuscular injection; type: in vivo
Procedure: Ten mice were gavaged with 5,000 mg/kg of compound 16C and another 10 mice were given DMSO orally as a control. The mice were fed and watered ad libitum. The animals’ appearance, diet, behavior, and death were observed and recorded for 14 consecutive days after administration. The LD50 was calculated as previously described ([Xiao et al., 2019]), and the test was repeated twice. To assess the acute toxicity of intramuscular administration in mice, we repeated the above experiment and replaced gavage with intramuscular injection.

[3] = tested on: IFN-γ; test: IFN-γ in BALF of M. pneumoniae-infected mice (ELISA); type: in vivo, BALB/c mice; conditions: for IFN-γ in BALF (AV): group AV; for IFN-γ in BALF: individual mice
Procedure: (§1) Adult BALB/c mice (20–22 g) were divided into a control group, a positive group, and compound 16C groups at low (20 mg/kg), medium (40 mg/kg), and high-dose (80 mg/kg) levels and oral and intramuscular tiamulin treatment groups (40 mg/kg). We formulated the above dose range based on the dose at which tiamulin was approved for injection (10–20 mg/kg) and the dose previously reported (45 mg/kg) ([EMA, 1999]; [Xiao et al., 2016]). In summary, we selected similar doses for compound 16C in vivo study. 40 mg/kg was used as an intermediate value, one-half of it as a low dose, and two times of it as a high dose. To prepare the challenge solution, logarithmic phase culture suspensions were centrifuged at 1700 g for 10 min, and the pellets were suspended in sterile PBS to obtain 1 × 10^9 CFU/mL. Before the challenge, mice were anesthetized with tribromoethanol (250 mg/kg, IP). Mice in the control groups were intratracheally inoculated with sterile PBS, whereas mice in the other groups were intratracheally challenged with 50 μL (1 × 10^9 CFU/mL) M. pneumoniae suspension once a day for 3 days. Compound 16C and tiamulin (tiamulin-IM group) dissolved using the method mentioned in pharmacokinetic studies, and the tiamulin fumarate soluble powder was dissolved in ddH2O for oral administration. After the final challenge, antibiotics were administered at low, medium, and high-dose levels (see above) at 10 a.m. and 10 p.m. daily for 4 consecutive days. Normal saline containing 5% DMSO and 5% Tween-80 was administered as control and positive groups by thigh intramuscular injection. To compare the efficacy of compound 16C and tiamulin under the same route of administration, we used the original tiamulin for intramuscular administration in the same formulation. On the other hand, tiamulin fumarate soluble powder, approved for oral administration to treat animal mycoplasma diseases in China, was administered to mice by gavage. Based on a clinical study of lefamulin in community-acquired bacterial pneumonia (CABP), subjects were administered twice a day and the 96 ± 24 h of starting treatment was an essential point for early clinical response (ECR) ([Paukner et al., 2022]). We therefore stopped treatment at 96 h and sampled at 192 h to explore whether the disease worsened after cessation of treatment. Bronchoalveolar lavage fluid (BALF) and lungs were collected at 0, 96, 192 h (Samples of 0 h were collected before starting treatment, and mice were fed ad libitum without drug treatment during 96–192 h) after the first dose, BALF for cytokine and cytological analysis and lung for histopathological evaluation.
(§2) Bronchoalveolar lavage was performed according to a standardized method ([Van Hoecke et al., 2017]). BALF was obtained following infusion of 0.5 mL PBS via tracheal cannulation into the lung twice (total 1 mL), and 200 µL was used for mycoplasma counts. The remaining BALF was centrifuged at 300 g for 10 min to separate the debris. The supernatants were stored at −80°C, and the debris was resuspended in the same volume of PBS containing red blood cell lysis buffer. A hemocytometer was used to count total cell numbers in BALF, and cell smears (Diff-Quik staining) were prepared to calculate the percentages of neutrophils, macrophages, and lymphocytes. IFN-γ, TNF-α, and CXCL1 levels in BALF samples were assessed using commercial ELISA kits using guidelines recommended by the manufacturer (Elabscience, Wuhan, China). Parallel data for each experimental group at each time point were obtained from six different mice.

[4] = tested on: CXCL1; test: CXCL1 in BALF of M. pneumoniae-infected mice (ELISA); type: in vivo, BALB/c mice; conditions: for CXCL1 in BALF (AV): group AV; for CXCL1 in BALF: individual mice
Procedure: as §1, §2

[5] = tested on: bronchial epithelial cell line 16HBE; parameters: method as in PMID 26150841; conditions: ref [30]; cited from earlier work
[6] = tested on: RAW 264.7; parameters: method as in PMID 26150841; conditions: RAW 264.7, 8 μg/mL, compared with the control drugs; ref [30]; cited from earlier work
[7] = tested on: Mycoplasma pneumoniae; test: In vivo pharmacodynamic study: Mycoplasma pneumoniae loads in BALF of infected mice; parameters: species or system BALB/c mice; conditions: for MPcounts in BALF (AV): group AV; for MPcounts in BALF: individual mice
Procedure: as §1, §2

[8] = compound 16C 20 mg/kg IM, 192 h
[9] = compound 16C 40 mg/kg IM, 192 h
[10] = compound 16C 80 mg/kg IM, 192 h

## C=CC1(C)CC(OC(=O)CSc2ccc(NC(=O)Cc3ccc([N+](=O)[O-])cc3)cc2)C2(C)C(C)CCC3(CCC(=O)C32)C(C)C1O (stereo not drawn) [compound 16C, 22–((4-((4-nitrophenyl)acetamido)phenyl)thio)deoxypleuromutilin]
[1]
  influence on cell viability: only slight influences on the viability
[2]; single dose of 5,000 mg/kg, after 2 weeks
  mouse deaths: did not result in any mouse deaths
[2]; single dose, mice, observed 14 d
  LD50: > 5,000 mg/kg
[3]; compound 16C 20 mg/kg IM, 96 h
  IFN-γ in BALF (AV): 61.9115 pg/mL
  IFN-γ in BALF: 66.1116 pg/mL and 70.7764 pg/mL and 60.3497 pg/mL and 48.4263 pg/mL and 63.8937 pg/mL
[3]; [8]
  IFN-γ in BALF (AV): 53.7268 pg/mL
  IFN-γ in BALF: 69.6648 pg/mL and 70.9988 pg/mL and 47.7654 pg/mL and 32.8171 pg/mL and 65.2242 pg/mL and 35.8907 pg/mL
[3]; compound 16C 40 mg/kg IM, 96 h
  IFN-γ in BALF (AV): 31.4597 pg/mL
  IFN-γ in BALF: 36.9995 pg/mL and 36.109 pg/mL and 18.2065 pg/mL and 31.1186 pg/mL and 39.6709 pg/mL and 26.6536 pg/mL
[3]; [9]
  IFN-γ in BALF (AV): 43.7114 pg/mL
  IFN-γ in BALF: 35.5746 pg/mL and 45.5493 pg/mL and 40.3832 pg/mL and 54.2951 pg/mL and 42.5204 pg/mL and 43.9456 pg/mL
[3]; compound 16C 80 mg/kg IM, 96 h
  IFN-γ in BALF (AV): 33.085 pg/mL
  IFN-γ in BALF: 42.8939 pg/mL and 46.612 pg/mL and 43.7193 pg/mL and 17.0898 pg/mL and 29.6102 pg/mL and 18.5846 pg/mL
[3]; [10]
  IFN-γ in BALF (AV): 30.1626 pg/mL
  IFN-γ in BALF: 41.5193 pg/mL and 31.3845 pg/mL and 29.0646 pg/mL and 27.0198 pg/mL and 28.7918 pg/mL and 26.4748 pg/mL and 26.8835 pg/mL
[4]; compound 16C 20 mg/kg IM, 96 h
  CXCL1 in BALF (AV): 48.0123 pg/mL
  CXCL1 in BALF: 56.3478 pg/mL and 48.458 pg/mL and 47.2524 pg/mL and 45.2286 pg/mL and 42.7748 pg/mL
[4]; [8]
  CXCL1 in BALF (AV): 38.192 pg/mL
  CXCL1 in BALF: 48.0568 pg/mL and 31.7563 pg/mL and 40.2912 pg/mL and 33.499 pg/mL and 37.352 pg/mL and 38.1966 pg/mL
[4]; compound 16C 40 mg/kg IM, 96 h
  CXCL1 in BALF (AV): 22.7681 pg/mL
  CXCL1 in BALF: 15.9622 pg/mL and 24.4156 pg/mL and 34.1197 pg/mL and 28.066 pg/mL and 17.0225 pg/mL
[4]; [9]
  CXCL1 in BALF (AV): 28.9333 pg/mL
  CXCL1 in BALF: 23.476 pg/mL and 20.5799 pg/mL and 29.3957 pg/mL and 43.4026 pg/mL and 16.4951 pg/mL and 40.2505 pg/mL
[4]; compound 16C 80 mg/kg IM, 96 h
  CXCL1 in BALF (AV): 24.5788 pg/mL
  CXCL1 in BALF: 33.6631 pg/mL and 23.7534 pg/mL and 35.719 pg/mL and 18.1872 pg/mL and 17.5299 pg/mL and 18.6204 pg/mL
[4]; [10]
  CXCL1 in BALF (AV): 39.611 pg/mL
  CXCL1 in BALF: 45.7844 pg/mL and 28.8637 pg/mL and 42.9442 pg/mL and 41.3398 pg/mL and 45.9405 pg/mL and 32.7936 pg/mL
[5]
  influence on cell viability: slightly more affected
[6]
  influence on cell viability: only slight influences on the viability
[7]; compound 16C 20 mg/kg IM twice daily 4 d, 96 h
  microbial reduction in BALF: 1.40 log10 CFU/mL
[7]; compound 16C 20 mg/kg IM, 96 h
  MPcounts in BALF (AV): 4.601 Log10CFU/mL
  MPcounts in BALF: 5.04 Log10CFU/mL and 4.682 Log10CFU/mL and 3.8451 Log10CFU/mL and 4.709 Log10CFU/mL and 4.293 Log10CFU/mL and 5.039 Log10CFU/mL
[7]; [8]
  MPcounts in BALF (AV): 3.598 Log10CFU/mL
  MPcounts in BALF: 3.747 Log10CFU/mL and 3.757 Log10CFU/mL and 3.482 Log10CFU/mL and 3.599 Log10CFU/mL and 3.64 Log10CFU/mL and 3.366 Log10CFU/mL
[7]; compound 16C 40 mg/kg IM twice daily 4 d, 96 h
  microbial reduction in BALF: 2.02 log10 CFU/mL
[7]; compound 16C 40 mg/kg IM, 96 h
  MPcounts in BALF (AV): 3.896 Log10CFU/mL
  MPcounts in BALF: 4.213 Log10CFU/mL and 4.174 Log10CFU/mL and 3.6574 Log10CFU/mL and 4.285 Log10CFU/mL and 3.708 Log10CFU/mL and 3.341 Log10CFU/mL
[7]; [9]
  MPcounts in BALF (AV): 3.662 Log10CFU/mL
  MPcounts in BALF: 3.675 Log10CFU/mL and 3.607 Log10CFU/mL and 3.633 Log10CFU/mL and 3.784 Log10CFU/mL and 3.322 Log10CFU/mL and 3.954 Log10CFU/mL
[7]; compound 16C 80 mg/kg IM twice daily 4 d, 96 h
  microbial reduction in BALF: 2.68 log10 CFU/mL
[7]; compound 16C 80 mg/kg IM twice daily 4 d, 192 h
  microbial reduction in BALF: 2.65 log10 CFU/mL
[7]; compound 16C 80 mg/kg IM, 96 h
  MPcounts in BALF (AV): 3.141 Log10CFU/mL
  MPcounts in BALF: 3.314 Log10CFU/mL and 3.255 Log10CFU/mL and 3.244 Log10CFU/mL and 3.15 Log10CFU/mL and 2.656 Log10CFU/mL and 3.223 Log10CFU/mL
[7]; [10]
  MPcounts in BALF (AV): 3.173 Log10CFU/mL
  MPcounts in BALF: 3.05 Log10CFU/mL and 3.185 Log10CFU/mL and 3.04 Log10CFU/mL and 3.438 Log10CFU/mL and 3.295 Log10CFU/mL and 3.0308 Log10CFU/mL
